Assay results as given in ChEMBL document CHEMBL5528066, “Discovery of Novel N-(Anthracen-9-ylmethyl) Benzamide Derivatives as ZNF207 Inhibitors Promising in Treating Glioma” (J Med Chem, 2024).
Calls of active or inactive are those of the source. The rule behind the calls is not given here.

Assays:
H4 [1] = assay: Inhibition of sphere formation in human H4 cells assessed as fold reduction in sphere initiating frequency at 2 uM incubated for 10 days by microscopic analysis relative to control; assay type: functional; conditions: time 10 day
[2] = Drug concentration in female Sprague-Dawley rat lung at 45 mg/kg, po measured after 8 hrs by LC-MS/MS analysis; assay type: ADME, organism-based; conditions: read-out: Ct
[3] = Toxicity in female C57BL/6 mouse assessed as change in cellular structure of brain at 45 mg/kg, po administered once a day for 2 weeks by H and E staining based analysis; assay type: organism-based; conditions: in vivo, 336 h
LN-229 [4] = assay: Antitumor activity against human LN-229 cells xenografted in BALB/c nude mouse assessed as reduction in proportion of p-H3 positive cells at 15 to 45 mg/kg, po administered once a day and measured after 49 days by immunohistochemistry analysis; assay type: functional, organism-based; conditions: dose 15-45 mg/kg, time 49.0 day
[5] = Drug concentration in female Sprague-Dawley rat spleen at 45 mg/kg, po measured after 8 hrs by LC-MS/MS analysis; assay type: ADME, organism-based; conditions: read-out: Ct
Hs 683 [6] = assay: Inhibition of sphere formation in human Hs 683 cells assessed as fold reduction in sphere initiating frequency at 2 uM incubated for 10 days by microscopic analysis relative to control; assay type: functional; conditions: time 10 day
[7] = Toxicity in female C57BL/6 mouse assessed as change in cellular structure of thymus at 45 mg/kg, po administered once a day for 2 weeks by H and E staining based analysis; assay type: organism-based; conditions: in vivo, 336 h
LN-229 [8] = assay: Inhibition of colony formation in human LN-229 cells assessed as reduction in colony area at 2.5 uM treated on day 1 and measured after 14 days by crystal violet staining based microscopic analysis relative to control; assay type: functional; conditions: LN-229, 336 h, time 14 day
U-251 [9] = assay: Inhibition of sphere formation in human U-251MG cells at 8 uM measured after 10 days in well containing 10 cells by microscopic analysis; assay type: functional, cell-based; conditions: time 10.0 day
NCI-H460 = assay: Antiproliferative activity against human NCI-H460 cells assessed as inhibition of cell growth incubated for 72 hrs by CCK-8 assay; assay type: functional, cell-based; conditions: NCI-H460, 72 h
[10] = molecular target: T1, BUB3-interacting and GLEBS motif-containing protein ZNF207 (Homo sapiens, UniProt O43670); assay: Binding affinity to human ZNF207 assessed as dissociation constant by SPR analysis
Hs 683 [11] = assay: Inhibition of colony formation in human Hs 683 cells assessed as reduction in number of cell clones treated on day 1 and measured after 14 days by crystal violet staining based microscopic analysis; assay type: functional; conditions: dose 0.625-5 µM, time 14.0 day
Hs 683 [12] = assay: Inhibition of sphere formation in human Hs 683 cells at 4 uM measured after 10 days in well containing 10 cells by microscopic analysis; assay type: functional, cell-based; conditions: time 10.0 day
LN-229 [13] = assay: Antitumor activity against human LN-229 cells xenografted in BALB/c nude mouse assessed as tumor growth inhibition at 15 to 45 mg/kg, po administered once a day and measured every 2 days for 49 days relative to control; assay type: functional; conditions: dose 15-45 mg/kg, time 49 day
[14] = Toxicity in male C57BL/6 mouse assessed as change in cellular structure of liver at 45 mg/kg, po administered once a day for 2 weeks by H and E staining based analysis; assay type: organism-based; conditions: in vivo, 336 h
LN-229 [15] = assay: Inhibition of sphere formation in human LN-229 cells at 2 uM measured after 10 days in well containing 1 cells by microscopic analysis; assay type: functional, cell-based; conditions: time 10.0 day
[16] = Drug uptake in Sprague-Dawley rat blood at 10 to 90 ng/ml, po administered as single dose and measured after 8 hrs by LC-MS/MS analysis; assay type: ADME, organism-based; conditions: in vivo, dose 10-90 ng/ml
LN-229 [17] = assay: Antitumor activity against human LN-229 cells xenografted in BALB/c nude mouse assessed as tumor growth delay by measuring tumor volume at 15 mg/kg, po administered once a day and measured every 2 days for 49 days (reference value: 700 […]); assay type: functional; conditions: time 49 day
H4 [18] = assay: Inhibition of sphere formation in human H4 cells at 2 uM measured after 10 days in well containing 1 cells by microscopic analysis; assay type: functional, cell-based; conditions: time 10.0 day
[19] = Drug concentration in female Sprague-Dawley rat kidney at 45 mg/kg, po measured after 8 hrs by LC-MS/MS analysis; assay type: ADME, organism-based; conditions: read-out: Ct
[20] = Toxicity in male C57BL/6 mouse assessed as change in cellular structure of stomach at 45 mg/kg, po administered once a day for 2 weeks by H and E staining based analysis; assay type: organism-based; conditions: in vivo, 336 h
H4 [21] = assay: Inhibition of sphere formation in human H4 cells at 4 uM measured after 10 days in well containing 10 cells by microscopic analysis; assay type: functional, cell-based; conditions: time 10.0 day
U-251 [22] = assay: Inhibition of sphere formation in human U-251MG cells at 2 uM measured after 10 days in well containing 10000 cells by microscopic analysis; assay type: functional, cell-based; conditions: time 10.0 day
[23] = Drug concentration in male Sprague-Dawley rat kidney at 45 mg/kg, po measured after 8 hrs by LC-MS/MS analysis; assay type: ADME, organism-based; conditions: read-out: Ct
H4 [24] = assay: Inhibition of sphere formation in human H4 cells at 4 uM measured after 10 days in well containing 1 cells by microscopic analysis; assay type: functional, cell-based; conditions: time 10.0 day
[25] = Toxicity in female C57BL/6 mouse assessed as change in cellular structure of liver at 45 mg/kg, po administered once a day for 2 weeks by H and E staining based analysis; assay type: organism-based; conditions: in vivo, 336 h
Hs 683 [26] = assay: Inhibition of sphere formation in human Hs 683 cells at 1 uM measured after 10 days in well containing 1 cells by microscopic analysis; assay type: functional, cell-based; conditions: time 10.0 day
H4 [27] = assay: Inhibition of sphere formation in human H4 cells at 8 uM measured after 10 days in well containing 10000 cells by microscopic analysis; assay type: functional, cell-based; conditions: time 10.0 day
LN-229 [28] = assay: Inhibition of sphere formation in human LN-229 cells at 2 uM measured after 10 days in well containing 10 cells by microscopic analysis; assay type: functional, cell-based; conditions: time 10.0 day
[29] = Drug concentration in female Sprague-Dawley rat intestine at 45 mg/kg, po measured after 8 hrs by LC-MS/MS analysis; assay type: ADME, organism-based; conditions: read-out: Ct
Hs 683 [30] = assay: Inhibition of sphere formation in human Hs 683 cells at 8 uM measured after 10 days in well containing 10 cells by microscopic analysis; assay type: functional, cell-based; conditions: time 10.0 day
LN-229 [31] = assay: Inhibition of sphere formation in human LN-229 cells at 8 uM measured after 10 days in well containing 10 cells by microscopic analysis; assay type: functional, cell-based; conditions: time 10.0 day
LN-229 [32] = assay: Inhibition of sphere formation in human LN-229 cells at 4 uM measured after 10 days in well containing 100 cells by microscopic analysis; assay type: functional, cell-based; conditions: time 10.0 day
Hs 683 [33] = assay: Inhibition of sphere formation in human Hs 683 cells at 2 uM measured after 10 days in well containing 1 cells by microscopic analysis; assay type: functional, cell-based; conditions: time 10.0 day
H4 [34] = assay: Inhibition of sphere formation in human H4 cells incubated for 168 hrs by microscopic analysis; assay type: functional, cell-based; conditions: H4, 168 h
U-251 [35] = assay: Inhibition of sphere formation in human U-251MG cells at 4 uM measured after 10 days in well containing 10000 cells by microscopic analysis; assay type: functional, cell-based; conditions: time 10.0 day
Hs 683 [36] = assay: Inhibition of sphere formation in human Hs 683 cells incubated for 168 hrs by microscopic analysis; assay type: functional, cell-based; conditions: Hs 683, 168 h
[37] = molecular target: T1, BUB3-interacting and GLEBS motif-containing protein ZNF207; assay: Binding affinity to ZNF207 in human U-251MG cells assessed as thermal stabilization by measuring melting temperature at 30 uM incubated for 3 hrs by CETSA (reference value: 48.7 degreeC); assay type: cell-based

T1 sequence (O43670 whole entry): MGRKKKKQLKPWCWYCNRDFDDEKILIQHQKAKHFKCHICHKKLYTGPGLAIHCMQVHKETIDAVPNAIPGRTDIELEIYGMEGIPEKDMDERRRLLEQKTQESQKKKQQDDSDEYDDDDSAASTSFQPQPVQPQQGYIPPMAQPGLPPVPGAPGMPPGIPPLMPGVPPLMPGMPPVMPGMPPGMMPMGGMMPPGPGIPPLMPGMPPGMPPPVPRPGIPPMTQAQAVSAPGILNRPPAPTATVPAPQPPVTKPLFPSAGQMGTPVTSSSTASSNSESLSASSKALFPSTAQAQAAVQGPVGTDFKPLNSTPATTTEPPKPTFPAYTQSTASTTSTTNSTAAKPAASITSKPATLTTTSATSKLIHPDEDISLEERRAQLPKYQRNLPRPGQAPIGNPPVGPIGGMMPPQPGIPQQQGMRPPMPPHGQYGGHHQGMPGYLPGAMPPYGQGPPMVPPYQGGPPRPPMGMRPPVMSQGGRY

In the case of `N#CC1(C(=O)NCCC2CCN(Cc3ccccc3)CC2)CC2(Br)c3ccccc3C1c1ccccc12` (racemic), the “fold change (FC)” value (H4 [1]) is reported as 25.31, the concentration at 8 h [2] is reported as 6360 ng/g and the Activity [3] is reported as “Non-Toxic”. The Activity (LN-229 [4]) was “Active”, the concentration at 8 h [5] was 2330 ng/g and the “fold change (FC)” value (Hs 683 [6]) was 15.75. For the same molecule, the Activity [7] was “Non-Toxic”, the inhibition at 2.5 µM (LN-229 [8]) was 100% and the inhibition (U-251 [9]) was “Active”. The IC50 (NCI-H460) was 15600 nM, the Kd [10] was 67 nM and the inhibition (Hs 683 [11]) was “Dose-Dependent Effect”. The inhibition (Hs 683 [12]) was “Active”, the TGI (LN-229 [13]) was about 55% and the Activity [14] was “Non-Toxic”. For the same molecule, the inhibition (LN-229 [15]) was “Active”, the Drug uptake [16] was “Active” and the Activity (LN-229 [17]) was 280 mm3. For the same molecule, the inhibition (H4 [18]) was “Active”, the concentration at 8 h [19] was 816 ng/g and the Activity [20] was “Non-Toxic”. The inhibition (H4 [21]) was “Active”, the inhibition (U-251 [22]) was “inactive” and the concentration at 8 h [23] was 85.1 ng/g. The inhibition (H4 [24]) was “Active”, the Activity [25] was “Non-Toxic” and the inhibition (Hs 683 [26]) was “Active”. The inhibition (H4 [27]) was “inactive”, the inhibition (LN-229 [28]) was “Active” and the concentration at 8 h [29] was 442 ng/g. For the same molecule, the inhibition (Hs 683 [30]) was “Active”, the inhibition (LN-229 [31]) was “Active” and the inhibition (LN-229 [32]) was “Active”. The inhibition (Hs 683 [33]) was “Active”, the IC50 (H4 [34]) was 740 nM and the inhibition (U-251 [35]) was “inactive”. It also gave an IC50 (Hs 683 [36]) of 2100 nM and a Tm [37] of 53.9 °C.
